Values after ≈ are worked out from the molar mass of the structure shown. Active and inactive are the calls of the source. The calls are words filed in the database; no cut-off is given here.
Key:
[1] = Aqueous solubility in water at 1 mg after 24 hrs at 20 degC by UV/LC-MS analysis; type: physicochemical
[2] = Apparent permeability of the compound after 5 hrs by PAMPA; type: ADME
[3] = Metabolic stability in human liver microsomes after 60 mins in presence of NADPH by UV/LC-MS analysis; type: ADME, microsome; details: read-out: Stability
SH-SY5Y [4] = test: Antiproliferative activity against human SH-SY5Y cells after 72 hrs by nucleo cell counting method
SH-SY5Y [5] = test: Antiproliferative activity against human SH-SY5Y cells at 1 to 10 uM after 72 hrs by nucleo cell counting method; type: functional, cell-based
SH-SY5Y [6] = test: Cell cycle arrest in human SH-SY5Y cells assessed as accumulation at G1 phase after 48 hrs by propidium iodide staining based flow cytometry; type: functional

Compound	Papp at 5 h [2] [×10⁻⁶ cm/s]	remaining at 1 h [3] [%]	IC50 (SH-SY5Y [4]) [µM]	solubility at 24 h [1] [µg/mL]	Activity (SH-SY5Y [5])	Activity (SH-SY5Y [6])
Oc1ccc(Cl)c(Nc2ncnc3c2cnn3CC(Cl)c2ccccc2)c1 (stereo not drawn)	4.39	86.3		0.053 (≈ 0.132 µM)		
CC(Cn1ncc2c(Nc3cccc(O)c3)nc(NCCO)nc21)c1ccccc1 (stereo not drawn)	0.2	99.4		134 (≈ 332 µM)		
CC(Cn1ncc2c(Nc3cc(O)ccc3Cl)nc(NCCO)nc21)c1ccccc1 (stereo not drawn)	0.1	97.9		0.103 (≈ 0.235 µM)		
CC(Cn1ncc2c(Nc3cc(O)ccc3Cl)nc(NCCN)nc21)c1ccccc1 (stereo not drawn)	2.2	98.4		0.1 (≈ 0.228 µM)		
CC(Cn1ncc2c(Nc3cc(O)ccc3Cl)nc(SCCN3CCOCC3)nc21)c1ccccc1 (stereo not drawn)	11.2	97.9		0.031 (≈ 0.059 µM)		
OCCNc1nc(Nc2cc(O)ccc2Cl)c2cnn(CC(Cl)c3ccccc3)c2n1 (stereo not drawn)	2.7	97.2	3.1	0.042 (≈ 0.0914 µM)	Active	Dose-dependent effect
Oc1ccc(Cl)c(Nc2nc(SCCN3CCOCC3)nc3c2cnn3CC(Cl)c2ccccc2)c1 (stereo not drawn)	9.74	96.9	6.6		Active	
CC(Cn1ncc2c(Nc3cccc(O)c3)nc(SCCN3CCOCC3)nc21)c1ccccc1 (stereo not drawn)	6.81	99		0.1 (≈ 0.204 µM)		

Second part, led by results:

Papp at 5 h [2] [×10⁻⁶ cm/s]	remaining at 1 h [3] [%]	IC50 (SH-SY5Y [4]) [µM]	Compound	solubility at 24 h [1] [µg/mL]	Activity (SH-SY5Y [5])	Activity (SH-SY5Y [6])
	93.5		CC(C)Sc1nc(Nc2cccc(O)c2)c2cnn(CC(Cl)c3ccccc3)c2n1 (stereo not drawn)			
8.33	92.7	6.7	CSc1nc(Nc2cc(O)ccc2Cl)c2cnn(CC(C)c3ccccc3)c2n1 (stereo not drawn)		Active	
3.23	96.4		CSc1nc(Nc2cc(O)ccc2Cl)c2cnn(CC(Cl)c3ccccc3)c2n1 (stereo not drawn)			
4.44	98.7		Oc1cccc(Nc2nc(SCCN3CCOCC3)nc3c2cnn3CC(Cl)c2ccccc2)c1 (stereo not drawn)	0.197 (≈ 0.385 µM)		

— ChEMBL document CHEMBL4265961, “Efficient optimization of pyrazolo[3,4-d]pyrimidines derivatives as c-Src kinase inhibitors in neuroblastoma treatment” (Bioorg Med Chem Lett, 2018)
